According to patent publication US20060281791A1, “Methods of increasing proliferation of adult mammalian cardiomyocytes through p38 map kinase inhibition” (CHILDREN'S MEDICAL CENTER CORPORATION, priority 2005, published 2006):
Several values for one entry are separate records, joined by “and”; a condition that tells them apart may be missing. Equal values may be shown once.

System: neonatal rat cardiomyocytes
Assay: cDNA microarray analysis (Affymetrix Rat Expression Set 230), x-fold changes of clustered genes
Assay type: cell-based
Conditions: 72 h; experiments (1) and (2); listed as FGF
Procedure: Animal experiments were performed in accordance with guidelines of Children's Hospital, Boston and UCLA. Ventricular cardiomyocytes from fetal (E19), 2-day-old (P2) and adult (250-350 g) Wistar rats (Charles River) were isolated as described with minor modifications (Engel et al. 1999; Engel et al. 2003). After digestion of fetal or neonatal hearts (0.14 mg/ml collagenase II (Invitrogen), 0.55 mg/ml pancreatin (Sigma)) cells were cultured in DMEM/F12 (GIBCO) containing 3 mM Na-pyruvate, 0.2% BSA, 0.1 mM ascorbic acid (Sigma), 0.5% Insulin-Transferrin-Selenium (100×), penicillin (100 U/ml), streptomycin (100 μg/ml), and 2 mM L-glutamine (GIBCO). Adult cardiomyocytes were cultured for 1 day in standard medium (DMEM, 25 mM Hepes, 5 mM taurine, 5 mM creatine, 2 mM L-carnitine (Sigma), 20 U/ml insulin (GIBCO), 0.2% BSA, penicillin (100 U/ml), and streptomycin (100 μg/ml)). Cells were stimulated in culture medium without BSA containing 2 mM L-glutamine. Neonatal and adult cardiomyocytes were initially cultured for 48 h in the presence of 20 μM cytosine β-D-arabinofuranoside (araC, Sigma) and 5% horse serum before stimulation to prevent proliferation of non-myocytes. Adult cardiomyocytes were incubated another 3 days with araC during stimulation. Neonatal cardiomyocytes were stimulated every day with growth factors for BrdU and H3P analyses (FGF1 and NRG-1-1β at 50 ng/ml, IL-1β at 100 ng/ml, R&D Systems, all diluted in 0.1% BSA/PBS). SB203580 and LY294002 (Calbiochem) was added every day. Adult cardiomyocytes were stimulated with fresh medium and SB203580 every 3 days.
RNA of neonatal cardiomyocytes was prepared 72 h after stimulation using Trizol (Invitrogen). RT-PCR was performed following standard protocols (Supplemental Table S4). Affymetrix technology was applied using the Rat Expression Set 230.
To determine the effect of p38 inhibition on cardiomyocyte differentiation and proliferation, a specific inhibitor of p38α and p38β, SB203580, was used and evaluated using cDNA microarray analyses using neonatal rat cardiomyocytes. […] Expression changes of a subset of genes were validated by RT-PCR.
Stimulation of neonatal cardiomyocytes with FGF1 induces fetal gene expression. To determine if FGF1, in combination with p38 inhibition, can reverse differentiation and induce cell cycle re-entry, we repeated cDNA microarray analyses (Supplemental Table S1). […]

## FGF1: growth factor FGF1 (R&D Systems)
  Growth response protein (CL-6) expression, x-fold change: 2.5 x-fold and 1.8 x-fold
  Hepatocyte F2alpha receptor expression, x-fold change: 0.9 x-fold and 1.0 x-fold
  IBP6 expression, x-fold change: 0.6 x-fold and 0.9 x-fold
  IGF1 expression, x-fold change: 0.5 x-fold and 0.3 x-fold
  IGFBP3 expression, x-fold change: 0.3 x-fold and 0.4 x-fold
  IL12a expression, x-fold change: 2.9 x-fold and 2.8 x-fold
  IRX4 expression, x-fold change: 0.7 x-fold and 0.9 x-fold
  Id1 expression, x-fold change: 2.7 x-fold and 2.3 x-fold
  Id3a expression, x-fold change: 2.4 x-fold and 1.9 x-fold
  Integrin, alpha 6 expression, x-fold change: 2.4 x-fold and 2.5 x-fold
  Integrin, alpha 11 expression, x-fold change: 1.7 x-fold and 1.2 x-fold
  Jag1 expression, x-fold change: 0.4 x-fold and 0.6 x-fold
  Ki67 expression, x-fold change: 1.7 x-fold and 1.5 x-fold
  Kinesin family member 22 expression, x-fold change: 1.6 x-fold and 1.7 x-fold
  Kinetochore-associated protein 1 expression, x-fold change: 1.9 x-fold and 2.1 x-fold
  Kruppel-like factor 2 expression, x-fold change: 0.7 x-fold and 0.9 x-fold
  LDLR expression, x-fold change: 4.0 x-fold and 2.7 x-fold
  Lgals1 expression, x-fold change: 1.8 x-fold and 1.7 x-fold
  Lgals9 expression, x-fold change: 4.3 x-fold and 3.1 x-fold
  Lhcgr expression, x-fold change: 0.4 x-fold and 0.8 x-fold
  Lisch7 expression, x-fold change: 0.6 x-fold and 0.8 x-fold
  Lot1 expression, x-fold change: 0.3 x-fold and 0.4 x-fold
  M-protein expression, x-fold change: 8.7 x-fold and 11.0 x-fold
  MAD2-LIKE 1 expression, x-fold change: 1.5 x-fold and 2.8 x-fold
  MCAK expression, x-fold change: 1.8 x-fold and 1.7 x-fold
  MCIP1 expression, x-fold change: 3.0 x-fold and 3.3 x-fold
  MCP-3 expression, x-fold change: 1.3 x-fold and 0.7 x-fold
  MDP77 expression, x-fold change: 1.5 x-fold and 0.8 x-fold
  MKK6 expression, x-fold change: 0.2 x-fold and 0.1 x-fold
  MLC1, atrial isoform expression, x-fold change: 3.3 x-fold and 2.8 x-fold
  MLC 2a expression, x-fold change: 2.7 x-fold and 2.1 x-fold
  MLC3, alkali expression, x-fold change: 13.9 x-fold and 23.2 x-fold
  MPP1 expression, x-fold change: 1.4 x-fold and 2.0 x-fold
  MURF1 expression, x-fold change: 0.6 x-fold and 0.5 x-fold
  MURF expression, x-fold change: 0.8 x-fold and 0.9 x-fold
  Mapt expression, x-fold change: 1.7 x-fold and 1.9 x-fold
  Mdk expression, x-fold change: 0.4 x-fold and 0.6 x-fold
  Melusin expression, x-fold change: 3.8 x-fold and 3.0 x-fold
  Moesin expression, x-fold change: 2.2 x-fold and 2.4 x-fold
  Multi PDZ domain protein 1 expression, x-fold change: 0.3 x-fold and 0.6 x-fold
  Mustang expression, x-fold change: 4.8 x-fold and 5.2 x-fold
  Myopodin expression, x-fold change: 3.7 x-fold and 3.2 x-fold
  NppB expression, x-fold change: 10.4 x-fold and 11.6 x-fold
  Nppa expression, x-fold change: 3.1 x-fold and 3.5 x-fold
  Nr1h3 expression, x-fold change: 0.7 x-fold and 0.6 x-fold
  Nrtn expression, x-fold change: 0.4 x-fold and 0.6 x-fold
  Ntf3 expression, x-fold change: 0.2 x-fold and 0.3 x-fold
  NuSAP expression, x-fold change: 1.5 x-fold and 1.4 x-fold
  Nuclear receptor co-activator NRIF3 expression, x-fold change: 1.4 x-fold and 1.2 x-fold
  Osteoblast specific factor expression, x-fold change: 0.3 x-fold and 0.2 x-fold
  P57 expression, x-fold change: 0.2 x-fold and 0.3 x-fold
  PAPIN expression, x-fold change: 0.5 x-fold and 0.7 x-fold
  PEA-15 expression, x-fold change: 2.5 x-fold and 2.1 x-fold
  PRKAR2 expression, x-fold change: 1.6 x-fold and 1.2 x-fold
  PTP-RL9, receptor-type protein tyrosine phosphatase expression, x-fold change: 1.1 x-fold and 0.8 x-fold
  Pdcd4 expression, x-fold change: 0.8 x-fold and 0.7 x-fold
  Pdgfra expression, x-fold change: 0.4 x-fold and 0.3 x-fold
  Pem expression, x-fold change: 0.9 x-fold and 0.7 x-fold
  Plasminogen activator inhibitor 1 expression, x-fold change: 5.3 x-fold and 8.8 x-fold
  Pleiotrophin expression, x-fold change: 0.2 x-fold and 0.1 x-fold
  Polyamine-modulated factor 1 expression, x-fold change: 1.5 x-fold and 1.4 x-fold
  Prc1 expression, x-fold change: 2.4 x-fold and 1.9 x-fold
  Prg-1 expression, x-fold change: 0.2 x-fold and 0.3 x-fold
  Protease inhibitor 7 expression, x-fold change: 1.3 x-fold and 0.8 x-fold
  Protein-tyrosine phosphatase expression, x-fold change: 0.5 x-fold and 0.6 x-fold
  Ptpla expression, x-fold change: 3.3 x-fold and 2.2 x-fold
  Ptprc/CD45 expression, x-fold change: 0.5 x-fold and 0.7 x-fold
  RAC2 expression, x-fold change: 0.7 x-fold and 0.6 x-fold
  RAD51 expression, x-fold change: 1.5 x-fold and 1.0 x-fold
  RNA binding motif protein 5 expression, x-fold change: 0.6 x-fold and 0.5 x-fold
  ROC2 expression, x-fold change: 1.6 x-fold and 2.4 x-fold
  Rac GTPase-activating protein 1 expression, x-fold change: 1.3 x-fold and 1.9 x-fold
  Retinoic acid inducible protein 3 expression, x-fold change: 1.5 x-fold and 1.3 x-fold
  Retinoic acid receptor, gamma expression, x-fold change: 0.6 x-fold and 1.0 x-fold
  Rgpr expression, x-fold change: 0.6 x-fold and 0.9 x-fold
  Rgs3 expression, x-fold change: 1.3 x-fold and 1.9 x-fold
  Rho family GTPase 1 expression, x-fold change: 4.1 x-fold and 3.9 x-fold
  Rho-related BTB domain containing 3 expression, x-fold change: 0.5 x-fold and 0.6 x-fold
  SHARP-1/dec2/Bhlhb3 expression, x-fold change: 0.2 x-fold and 0.3 x-fold
  SPARC related modular calcium binding 2 expression, x-fold change: 0.3 x-fold and 0.4 x-fold
  STK38 expression, x-fold change: 3.9 x-fold and 2.0 x-fold
  STk18 expression, x-fold change: 1.3 x-fold and 1.9 x-fold
  Semaphorin 4B expression, x-fold change: 0.6 x-fold and 0.5 x-fold
  Semaphorin 6D-1 expression, x-fold change: 0.5 x-fold and 0.3 x-fold
  Sh3kbp1 expression, x-fold change: 1.1 x-fold and 0.9 x-fold
  Shc SH2-domain binding protein 1 expression, x-fold change: 1.6 x-fold and 1.1 x-fold
  Smooth muscle 22 protein expression, x-fold change: 1.2 x-fold and 1.4 x-fold
  Snf1lk expression, x-fold change: 3.5 x-fold and 3.9 x-fold
  Soluble fibroblast growth factor receptor IIIb (sKGF-R gene) expression, x-fold change: 0.9 x-fold and 0.8 x-fold
  Sox4 expression, x-fold change: 0.7 x-fold and 0.6 x-fold
  Sox11 expression, x-fold change: 0.9 x-fold and 1.3 x-fold
  Spag5 expression, x-fold change: 1.4 x-fold and 1.9 x-fold
  Sponf expression, x-fold change: 0.2 x-fold and 0.3 x-fold
  Stathmin expression, x-fold change: 1.2 x-fold and 1.6 x-fold
  TBX2 expression, x-fold change: 1.8 x-fold and 2.0 x-fold
  Testin expression, x-fold change: 0.6 x-fold and 0.7 x-fold
  Tgf beta 2 expression, x-fold change: 1.4 x-fold and 1.5 x-fold
  Tgfbr2 expression, x-fold change: 0.5 x-fold and 0.9 x-fold
  Thymidine kinase expression, x-fold change: 1.5 x-fold and 1.9 x-fold
  Tieg expression, x-fold change: 0.3 x-fold and 0.4 x-fold
  Tmeff1 expression, x-fold change: 2.1 x-fold and 2.4 x-fold
  Tnfrsf12a expression, x-fold change: 3.7 x-fold and 3.3 x-fold
  Topoisomerase (DNA) II alpha expression, x-fold change: 1.8 x-fold and 1.7 x-fold
  Transferrin receptor expression, x-fold change: 2.9 x-fold and 1.6 x-fold
  Tspan-2 expression, x-fold change: 2.4 x-fold and 1.8 x-fold
  Tspan-6 expression, x-fold change: 2.2 x-fold and 1.7 x-fold
  Tubulin alpha-4 expression, x-fold change: 2.7 x-fold and 2.6 x-fold
  Tubulin beta class I expression, x-fold change: 2.4 x-fold and 1.9 x-fold
  Tubulin, beta 2 expression, x-fold change: 1.3 x-fold and 1.2 x-fold
  Unc5h2 expression, x-fold change: 1.7 x-fold and 1.3 x-fold
  VEGF receptor-2FLK-1 expression, x-fold change: 1.8 x-fold and 1.6 x-fold
  VEGFD expression, x-fold change: 0.1 x-fold and 0.2 x-fold
  Vegfc expression, x-fold change: 0.4 x-fold and 0.6 x-fold
